Molecular target: JAK2 (Homo sapiens, UniProt O60674)
Assay: JAK2 Tyrosine Kinase Assay
Assay type: biochemical
Conditions: list of named compounds; read-out: IC50 in the JAK2 assay
Experimental: JAK2 Tyrosine Kinase Assay
The assays were performed in V-bottom 384-well plates. […] The reaction was initiated by the combination of JAK2 with substrates and test compounds. The reaction was incubated at room temperature for 60 min. and terminated by adding 45 μl of 35 mM EDTA to each sample. The reaction mixture was analyzed on the Caliper LabChip 3000 by electrophoretic separation of the fluorescent substrate and phosphorylated product. […] Compounds were dissolved at 10 mM in dimethylsulfoxide (DMSO) and evaluated at eleven concentrations, each in duplicate. IC50 values were derived by non-linear regression analysis

Sequence of JAK2 (O60674 whole entry): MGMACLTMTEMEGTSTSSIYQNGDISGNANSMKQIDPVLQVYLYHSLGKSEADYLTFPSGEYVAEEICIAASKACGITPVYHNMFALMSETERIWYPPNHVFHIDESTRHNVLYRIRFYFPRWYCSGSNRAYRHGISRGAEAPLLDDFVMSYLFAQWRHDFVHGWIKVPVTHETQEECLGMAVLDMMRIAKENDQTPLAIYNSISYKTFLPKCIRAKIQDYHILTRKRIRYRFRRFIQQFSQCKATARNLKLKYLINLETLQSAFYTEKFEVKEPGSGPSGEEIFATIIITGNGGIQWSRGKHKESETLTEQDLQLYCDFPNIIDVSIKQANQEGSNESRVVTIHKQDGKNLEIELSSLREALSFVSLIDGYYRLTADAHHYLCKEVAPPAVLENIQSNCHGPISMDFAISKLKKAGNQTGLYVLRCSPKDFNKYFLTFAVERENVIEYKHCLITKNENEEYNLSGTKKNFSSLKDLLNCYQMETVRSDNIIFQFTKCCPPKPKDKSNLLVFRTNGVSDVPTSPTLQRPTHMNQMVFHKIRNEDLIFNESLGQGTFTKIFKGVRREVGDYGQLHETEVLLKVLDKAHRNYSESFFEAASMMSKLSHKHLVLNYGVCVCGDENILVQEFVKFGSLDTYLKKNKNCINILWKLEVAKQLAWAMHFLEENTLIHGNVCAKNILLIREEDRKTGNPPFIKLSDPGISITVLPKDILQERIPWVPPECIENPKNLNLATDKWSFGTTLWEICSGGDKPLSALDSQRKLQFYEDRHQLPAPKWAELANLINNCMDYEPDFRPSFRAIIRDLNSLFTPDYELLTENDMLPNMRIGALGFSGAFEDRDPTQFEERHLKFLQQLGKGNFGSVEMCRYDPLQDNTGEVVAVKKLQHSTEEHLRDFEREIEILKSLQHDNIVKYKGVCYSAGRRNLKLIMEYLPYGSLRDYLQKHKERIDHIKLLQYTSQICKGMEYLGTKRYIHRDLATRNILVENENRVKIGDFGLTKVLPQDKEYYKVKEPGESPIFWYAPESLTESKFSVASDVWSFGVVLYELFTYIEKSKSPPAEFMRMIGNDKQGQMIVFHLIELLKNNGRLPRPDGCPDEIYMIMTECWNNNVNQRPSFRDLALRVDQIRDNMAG

IC50 [nM]	Compound
≤ 5	Cc1cc(Nc2nc(N3CCN(C(=O)c4ccccc4NC(=O)OC(C)(C)C)CC3)nn3cccc23)n[nH]1 [tert-butyl (2-((4-(4-((5-methyl-1H-pyrazol-3-yl)amino)pyrrolo[2,1-f][1,2,4]triazin-2-yl)-1-piperazinyl)carbonyl)phenyl)carbamate]
≤ 5	Cc1cc(Nc2nc(N3CCN(C(=O)c4c(F)cccc4C(F)(F)F)CC3)nn3cccc23)n[nH]1 [2-(4-(2-fluoro-6-(trifluoromethyl)benzoyl)-1-piperazinyl)-N-(5-methyl-1H-pyrazol-3-yl)pyrrolo[2,1-f][1,2,4]triazin-4-amine]
≤ 5	Cc1cc(Nc2nc(N3CCN(C(=O)C(NC(=O)OC(C)(C)C)c4ccc(Cl)cc4)CC3)nn3cccc23)n[nH]1 (stereo not drawn) [tert-butyl (1-(4-chlorophenyl)-2-(4-(4-((5-methyl-1H-pyrazol-3-yl)amino)pyrrolo[2,1-f][1,2,4]triazin-2-yl)-1-piperazinyl)-2-oxoethyl)carbamate]
≤ 5	Cc1cc(Nc2nc(N3CCN(C(=O)c4cc(F)c(F)cc4Cl)CC3)nn3cccc23)n[nH]1 [2-(4-(2-chloro-4,5-difluorobenzoyl)-1-piperazinyl)-N-(5-methyl-1H-pyrazol-3-yl)pyrrolo[2,1-f][1,2,4]triazin-4-amine]
≤ 5	Cc1cc(Nc2nc(N3CCN(C(=O)C(c4ccc(Cl)cc4)C(C)C)CC3)nn3cccc23)n[nH]1 (stereo not drawn) [2-(4-(2-(4-chlorophenyl)-3-methylbutanoyl)-1-piperazinyl)-N-(5-methyl-1H-pyrazol-3-yl)pyrrolo[2,1-f][1,2,4]triazin-4-amine]
≤ 5	Cc1cc(Nc2nc(N3CCN(C(=O)Cc4ccc(Cl)cc4F)CC3)nn3cccc23)n[nH]1 [2-(4-((4-chloro-2-fluorophenyl)acetyl)-1-piperazinyl)-N-(5-methyl-1H-pyrazol-3-yl)pyrrolo[2,1-f][1,2,4]triazin-4-amine]
≤ 5	Cc1cc(Nc2nc(N3CCN(C(=O)C(O)c4ccccc4F)CC3)nn3cccc23)n[nH]1 (stereo not drawn) [1-(2-fluorophenyl)-2-(4-(4-((5-methyl-1H-pyrazol-3-yl)amino)pyrrolo[2,1-f][1,2,4]triazin-2-yl)-1-piperazinyl)-2-oxoethanol]
≤ 5	Cc1cc(Nc2nc(N3CCN(C(=O)[C@@H](O)Cc4ccccc4)CC3)nn3cccc23)n[nH]1 [(2S)-1-(4-(4-((5-methyl-1H-pyrazol-3-yl)amino)pyrrolo[2,1-f][1,2,4]triazin-2-yl)-1-piperazinyl)-1-oxo-3-phenyl-2-propanol]
≤ 5	Cc1cc(Nc2nc(N3CCN(C(=O)c4cccnc4Cl)CC3)nn3cccc23)n[nH]1 [2-(4-((2-chloro-3-pyridinyl)carbonyl)-1-piperazinyl)-N-(5-methyl-1H-pyrazol-3-yl)pyrrolo[2,1-f][1,2,4]triazin-4-amine]
≤ 5	CO[C@](C(=O)N1CCN(c2nc(Nc3cc(C)[nH]n3)c3cccn3n2)CC1)(c1ccccc1)C(F)(F)F [N-(5-methyl-1H-pyrazol-3-yl)-2-(4-((2S)-3,3,3-trifluoro-2-methoxy-2-phenylpropanoyl)-1-piperazinyl)pyrrolo[2,1-f][1,2,4]triazin-4-amine]
≤ 5	Cc1cc(Nc2nc(N3CCN(C(=O)c4ccccc4COc4ccccc4)CC3)nn3cccc23)n[nH]1 [N-(5-methyl-1H-pyrazol-3-yl)-2-(4-(2-(phenoxymethyl)benzoyl)-1-piperazinyl)pyrrolo[2,1-f][1,2,4]triazin-4-amine]
≤ 5	Cc1cc(Nc2nc(N3CCN(C(=O)c4ccccc4-c4c(C)n[nH]c4C)CC3)nn3cccc23)n[nH]1 [2-(4-(2-(3,5-dimethyl-1H-pyrazol-4-yl)benzoyl)-1-piperazinyl)-N-(5-methyl-1H-pyrazol-3-yl)pyrrolo[2,1-f][1,2,4]triazin-4-amine]
≤ 5	Cc1cc(Nc2nc(N3CCN(C(=O)C4(C)CC4)CC3)nn3cccc23)n[nH]1 [2-(4-((1-methylcyclopropyl)carbonyl)-1-piperazinyl)-N-(5-methyl-1H-pyrazol-3-yl)pyrrolo[2,1-f][1,2,4]triazin-4-amine]
≤ 5	CO[C@@H](C(=O)N1CCN(c2nc(Nc3cc(C)[nH]n3)c3cccn3n2)CC1)c1ccccc1 [2-(4-((2R)-2-methoxy-2-phenylacetyl)-1-piperazinyl)-N-(5-methyl-1H-pyrazol-3-yl)pyrrolo[2,1-f][1,2,4]triazin-4-amine]
≤ 5	Cc1cc(Nc2nc(N3CCN(C(=O)Cc4ccc(OC(F)(F)F)cc4)CC3)nn3cccc23)n[nH]1 [N-(5-methyl-1H-pyrazol-3-yl)-2-(4-((4-(trifluoromethoxy)phenyl)acetyl)-1-piperazinyl)pyrrolo[2,1-f][1,2,4]triazin-4-amine]
≤ 5	Cc1cc(Nc2nc(N3CCN(C(=O)Cc4cccc(C(F)(F)F)c4)CC3)nn3cccc23)n[nH]1 [N-(5-methyl-1H-pyrazol-3-yl)-2-(4-((3-(trifluoromethyl)phenyl)acetyl)-1-piperazinyl)pyrrolo[2,1-f][1,2,4]triazin-4-amine]
≤ 5	CC(=O)Nc1ccc(C(=O)N2CCN(c3nc(Nc4cc(C)[nH]n4)c4cccn4n3)CC2)cc1 [N-(4-((4-(4-((5-methyl-1H-pyrazol-3-yl)amino)pyrrolo[2,1-f][1,2,4]triazin-2-yl)-1-piperazinyl)carbonyl)phenyl)acetamide]

IC50 [nM]	Compound
≤ 5	Cc1cc(Nc2nc(N3CCN(C(=O)c4ccccc4[N+](=O)[O-])CC3)nn3cccc23)n[nH]1 [N-(5-methyl-1H-pyrazol-3-yl)-2-(4-(2-nitrobenzoyl)-1-piperazinyl)pyrrolo[2,1-f][1,2,4]triazin-4-amine]
≤ 5	Cc1cc(Nc2nc(N3CCN(C(=O)c4cc(Cl)ccc4Cl)CC3)nn3cccc23)n[nH]1 [2-(4-(2,5-dichlorobenzoyl)-1-piperazinyl)-N-(5-methyl-1H-pyrazol-3-yl)pyrrolo[2,1-f][1,2,4]triazin-4-amine]
≤ 5	Cc1cc(Nc2nc(N3CCN(C(=O)c4cccc(F)c4)CC3)nn3cccc23)n[nH]1 [2-(4-(3-fluorobenzoyl)-1-piperazinyl)-N-(5-methyl-1H-pyrazol-3-yl)pyrrolo[2,1-f][1,2,4]triazin-4-amine]
≤ 5	Cc1cc(Nc2nc(N3CCN(C(=O)c4cnco4)CC3)nn3cccc23)n[nH]1 [N-(5-methyl-1H-pyrazol-3-yl)-2-(4-(1,3-oxazol-5-ylcarbonyl)-1-piperazinyl)pyrrolo[2,1-f][1,2,4]triazin-4-amine]
≤ 5	Cc1cc(Nc2nc(N3CCN(C(=O)COCc4ccccc4)CC3)nn3cccc23)n[nH]1 [2-(4-((benzyloxy)acetyl)-1-piperazinyl)-N-(5-methyl-1H-pyrazol-3-yl)pyrrolo[2,1-f][1,2,4]triazin-4-amine]
≤ 5	Cc1cc(Nc2nc(N3CCN(C(=O)[C@@H](O)c4ccccc4)CC3)nn3cccc23)n[nH]1 [(1S)-2-(4-(4-((5-methyl-1H-pyrazol-3-yl)amino)pyrrolo[2,1-f][1,2,4]triazin-2-yl)-1-piperazinyl)-2-oxo-1-phenylethanol]
≤ 5	Cc1cc(Nc2nc(N3CCN(C(=O)c4ccc(OC(F)(F)F)cc4)CC3)nn3cccc23)n[nH]1 [N-(5-methyl-1H-pyrazol-3-yl)-2-(4-(4-(trifluoromethoxy)benzoyl)-1-piperazinyl)pyrrolo[2,1-f][1,2,4]triazin-4-amine]
≤ 5	Cc1cc(Nc2nc(N3CCN(C(=O)C4(NC(=O)OC(C)(C)C)CCc5ccccc54)CC3)nn3cccc23)n[nH]1 (stereo not drawn) [tert-butyl (1-((4-(4-((5-methyl-1H-pyrazol-3-yl)amino)pyrrolo[2,1-f][1,2,4]triazin-2-yl)-1-piperazinyl)carbonyl)-2,3-dihydro-1H-inden-1-yl)carbamate]
≤ 5	Cc1cc(Nc2nc(N3CCN(C(=O)[C@H](O)c4ccccc4)CC3)nn3cccc23)n[nH]1 [(1R)-2-(4-(4-((5-methyl-1H-pyrazol-3-yl)amino)pyrrolo[2,1-f][1,2,4]triazin-2-yl)-1-piperazinyl)-2-oxo-1-phenylethanol]
≤ 5	CC(=O)Nc1cccc(C(=O)N2CCN(c3nc(Nc4cc(C)[nH]n4)c4cccn4n3)CC2)c1 [N-(3-((4-(4-((5-methyl-1H-pyrazol-3-yl)amino)pyrrolo[2,1-f][1,2,4]triazin-2-yl)-1-piperazinyl)carbonyl)phenyl)acetamide]
≤ 5	Cc1cc(Nc2nc(N3CCN(C(=O)Cc4c(Cl)cccc4Cl)CC3)nn3cccc23)n[nH]1 [2-(4-((2,6-dichlorophenyl)acetyl)-1-piperazinyl)-N-(5-methyl-1H-pyrazol-3-yl)pyrrolo[2,1-f][1,2,4]triazin-4-amine]
≤ 5	Cc1cc(Nc2nc(N3CCN(C(=O)[C@H](O)CCc4ccccc4)CC3)nn3cccc23)n[nH]1 [(2R)-1-(4-(4-((5-methyl-1H-pyrazol-3-yl)amino)pyrrolo[2,1-f][1,2,4]triazin-2-yl)-1-piperazinyl)-1-oxo-4-phenyl-2-butanol]
≤ 5	Cc1cc(Nc2nc(N3CCN(C(=O)C4(C#N)CC4)CC3)nn3cccc23)n[nH]1 [1-((4-(4-((5-methyl-1H-pyrazol-3-yl)amino)pyrrolo[2,1-f][1,2,4]triazin-2-yl)-1-piperazinyl)carbonyl)cyclopropanecarbonitrile]
≤ 5	Cc1cc(Nc2nc(N3CCN(C(=O)c4ccoc4)CC3)nn3cccc23)n[nH]1 [2-(4-(3-furoyl)-1-piperazinyl)-N-(5-methyl-1H-pyrazol-3-yl)pyrrolo[2,1-f][1,2,4]triazin-4-amine]
≤ 5	Cc1ccc(C2(C(=O)N3CCN(c4nc(Nc5cc(C)[nH]n5)c5cccn5n4)CC3)CCCCC2)cc1 [2-(4-((1-(4-methylphenyl)cyclohexyl)carbonyl)-1-piperazinyl)-N-(5-methyl-1H-pyrazol-3-yl)pyrrolo[2,1-f][1,2,4]triazin-4-amine]
≤ 5	Cc1ccc(C(=O)N2CCN(c3nc(Nc4cc(C)[nH]n4)c4cccn4n3)CC2)cn1 [N-(5-methyl-1H-pyrazol-3-yl)-2-(4-((6-methyl-3-pyridinyl)carbonyl)-1-piperazinyl)pyrrolo[2,1-f][1,2,4]triazin-4-amine]
